{"source": "paper PMC10709327", "about": "“A class of secreted mammalian peptides with potential to expand cell-cell communication” (Nature Communications, 2023)", "key": {"[1]": {"assay": "in vitro", "method": "P value were calculated with two-way ANOVA. Source data are provided as a Source Data file.\nAt indicated time point, 1 µl of HALT protease inhibitor was immediately added, and plasma was boiled and prepared using the peptidomics workflow described above. […] Half-lives were calculated using an exponential decay fit."}, "[2]": {"target": "T1, human TACR3 (Homo sapiens, UniProt P29371)", "T1 construct": "host or cells: PathHunter beta-arrestin CHO-K1 cells", "T1 sequence (P29371 1-465)": "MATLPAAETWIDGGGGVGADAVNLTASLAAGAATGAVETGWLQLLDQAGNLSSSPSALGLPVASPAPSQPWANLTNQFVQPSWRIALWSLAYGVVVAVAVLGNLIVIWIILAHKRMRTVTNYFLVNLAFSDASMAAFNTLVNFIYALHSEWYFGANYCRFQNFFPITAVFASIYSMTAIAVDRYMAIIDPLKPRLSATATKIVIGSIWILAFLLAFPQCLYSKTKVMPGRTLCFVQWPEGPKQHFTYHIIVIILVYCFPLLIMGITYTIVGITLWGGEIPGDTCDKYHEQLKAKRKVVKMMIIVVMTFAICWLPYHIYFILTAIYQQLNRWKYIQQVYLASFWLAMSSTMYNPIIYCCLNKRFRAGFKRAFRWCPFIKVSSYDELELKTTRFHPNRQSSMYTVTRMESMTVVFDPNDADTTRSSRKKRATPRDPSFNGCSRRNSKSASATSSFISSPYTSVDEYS", "assay": "TACR agonist assay, PathHunter beta-arrestin recruitment (TACR3)", "format": "cell-based", "conditions": "read-out: maximal activation at TACR3, higher compared to Substance P(6-11)"}, "[3]": {"tested_on": "diet-induced obese male mice", "assay": "3-day food intake and body weight under daily dosing", "format": "in vivo, mouse", "conditions": "for Food Intake: 50 mg/kg", "method": "(§1) Fig. 5 Functional studies of […] in feeding and energy balance in mice. a Schematic of the primary amino acid sequence for full-length mouse GDF15 preproprotein and annotation of CAP-GDF15 sequence as well as the canonical GDF15 hormone sequence. b–d Food intake (b), respiratory exchange ratio (RER, c), and ambulatory activity (d) of 12–16-week diet-induced obese male mice following a single treatment of CAP-GDF15 (50 mg/kg, intraperitoneal) or vehicle control. e–g Food intake (e), RER (f), and ambulatory activity (g) of 12–16-week diet-induced obese male mice following a single treatment of scrambled CAP-GDF15 (50 mg/kg, intraperitoneal, scrambled sequence: pGlu-[…]-NH2) or vehicle control. h, i 3-day food intake (h) and body weight (i) of 12–16-week diet-induced obese male mice following treatment with CAP-GDF15 or scrambled CAP-GDF15 (50 mg/kg/day, IP), or vehicle control. Data are shown as means ± SEM. b–d, N = 12 mice/group; for e, f N = 8 mice/group; for h N = 7 food cages for vehicle and CAP-GDF15 groups and N = 5 for the scrambled peptide group; for i N = 14 mice for the vehicle group, N = 13 for the CAP-GDF15 group, and N = 5 for the scrambled peptide group. b–i injection occurred at time T = 0 (5:00 pm) and data were collected for the following 16 hrs. For (b-i), p values were calculated by two-way ANOVA. Source data are provided as a Source Data file.\nLastly, to determine whether the acute food intake suppressive effects of CAP-GDF15 would lead to long-term suppression of feeding and obesity, we administered CAP-GDF15 or scrambled CAP-GDF15 (50 mg/kg/day, IP), or vehicle control to diet-induced obese mice. Food intake and body weight were monitored over a three-day period. A durable suppression of food intake in CAP-GDF15-treated mice was over the three-day experiment (Vehicle, 7.3 ± 0.5 g/mouse; […], 4.1 ± 0.9 g/mouse/day, P < 0.05, Fig. 5h). Consequently, and as expected, an increasing reduction in body weight was also detected (Vehicle, +0.1 ± 0.3 g/mouse; CAP-GDF15, −1.9 ± 0.3 g/mouse, P < 0.001, Fig. 5i). Importantly, mice treated with the scrambled CAP-GDF15 peptide were indistinguishable in body weight or food intake from control mice (P > 0.05 versus vehicle-treated mice, Fig. 5h, i).\n(§2) Animal experiments were performed according to a procedure approved by the Stanford University Administrative Panel on Laboratory Animal Care. Mice were maintained in 12-h light-dark cycles at 22 °C and about 50% relative humidity and fed a standard irradiated rodent diet. Where indicated, a high-fat diet (D12492, Research Diets 60% kcal from fat) was used. Male C57BL/6 J (stock number 000664) and male C57BL/6 J DIO mice were purchased from the Jackson Laboratory (stock number 380050). For studies in high-fat diet-fed mice, peptides were dissolved in 18:1:1 (by volume) of saline:Kolliphor EL (Sigma Aldrich):DMSO and administered to mice by intraperitoneal injections at a volume of 10 µl/g at the indicated doses for the indicated times. For lipopolysacchardide injection, LPS (Sigma, #L2880-10MG) was dissolved in saline and administered to mice at a volume of 5 µl/g at indicated dose. For fasting, food was removed from mice for 16 h. For running, a six-lane Columbus Instruments animal treadmill (product 1055-SRM-D65) was used with following 1 h protocol: 10 min at 6 m/min, 50 min at 18 m/min, and increase every 2 min by 2 m/min for the last 10 minutes, all at 12° incline. For all treatment experiments, mice were mock injected with the vehicle for 3–5 days until body weights were stabilized. Heparin plasma was harvested by submandibular bleed. For all experiments, mice were randomly assigned to treatment groups. Experimenters were not blinded to groups."}, "[4]": {"tested_on": "diet-induced obese male mice", "assay": "Metabolic chamber studies after a single dose (food intake, RER, movement, VO2, VCO2)", "format": "in vivo, mouse", "conditions": "single dose 50 mg/kg intraperitoneal, diet-induced obese male mice, metabolic chambers", "method": "as §1, with “Data are shown as means ± SEM. b–d, N = 12 mice/group; for e, f N = 8 mice/group; for h N = 7 food cages for vehicle and CAP-GDF15 groups and N = 5 for the scrambled peptide group; for i N = 14 mice for the vehicle group, N = 13 for the CAP-GDF15 group, and N = 5 for the scrambled peptide group. b–i injection occurred at time T = 0 (5:00 pm) and data were collected for the following 16 hrs.” left out\nas §2\nFor acute energy expenditure studies, food intake, RER, movement, VO2, and VCO2 were collected with CLAMS Oxymax Metabolic Cages. Mice were placed in individual metabolic cages for 24 hours prior to experiment. Mice were injected with either vehicle, 50 mg/kg CAP-GDF15, 50 mg/kg uncapped CAP-GDF15, or 50 mg/kg scrambled CAP-GDF15 at 5 pm at T = 0. […] All experiments were done with 3–5 month old DIO mice (Jackson, stock 380050), fed high-fat diet ad libitum.\nSupplementary Figure 5. Additional measurements from metabolic chambers of mice treated with CAP-GDF15. a CAP-GDF15 plasma concentration after administration of CAP-GDF15 (50 mg/kg, intraperitoneal) or vehicle control. b-c VO2 (b) and VCO2 (c) of 12-16-week diet-induced obese male mice following a single treatment of CAP-GDF15 (50 mg/kg, intraperitoneal) or vehicle control. d-e VO2 (d) and VCO2 (e) of 12-16-week diet-induced obese male mice following a single treatment of scrambled CAP-GDF15 (50 mg/kg, intraperitoneal, scrambled sequence: p[…]-NH2) or vehicle control. f Acute food intake of 12-16-week diet-induced obese male mice following a single treatment of CAP-GDF15 (50 mg/kg, intraperitoneal), uncapped CAP-GDF15 (50 mg/kg, intraperitoneal), or vehicle control. For (a), N=3/group; (b-c), N=12/group; for (d-e), N=8/group; for (f), N=5/group.\nFor (a-f), injection occurred at time T=0 (5:00pm). Data are shown as means ± SEM. For (b-i), p values were calculated by two-way ANOVA. Source data are provided as a Source Data"}, "[5]": {"conditions": "human, in vivo; cited from earlier work"}, "[6]": {"conditions": "50 mg/kg/day IP, diet-induced obese mice, N = 5, P > 0.05 versus vehicle"}}, "note": "Where a SMILES comes first, the peptide text is derived from it. Where no end group is shown, it is not given here. [ ]: non-standard residue; d: D form. pGlu = O=C1CC[C@@H](C(=O)O)N1", "data": [{"compound": "CSCC[C@H](NC(=O)[C@H](CC(C)C)NC(=O)CNC(=O)[C@H](Cc1ccccc1)NC(=O)[C@H](Cc1ccccc1)NC(=O)[C@@H]1CCC(=O)N1)C(N)=O", "note": "[CAP-TAC1] ([pGlu]FFGLM-NH2)", "values": [{"measurement": "half-life at 10 µM", "setting": "[1]; mouse, plasma", "result": 17.1, "unit": "min"}, {"measurement": "plasma stability t1/2, earlier manuscript version quoted in the rebuttal", "setting": "[1]; mouse, plasma", "result": 14.4, "unit": "min"}, {"measurement": "Emax", "setting": "[2]", "result": "~20", "unit": "%"}]}, {"compound": "CC(C)C[C@H](NC(=O)CNC(=O)[C@@H]1CCC(=O)N1)C(=O)N[C@@H](CCC(=O)O)C(=O)N[C@@H](C)C(=O)N[C@@H](CC(C)C)C(=O)N[C@@H](CCCNC(=N)N)C(=O)N[C@@H](C)C(=O)N[C@@H](CCCNC(=N)N)C(=O)N[C@@H](CC(C)C)C(=O)N[C@@H](CCCNC(=N)N)C(=O)N[C@H](C(N)=O)C(C)C", "note": "[Scrambled Peptide] ([pGlu]GLEALRARLRV-NH2)", "values": [{"measurement": "Food Intake", "setting": "[3]; 24 h, individual animal 1", "result": 2.8, "unit": "g"}, {"measurement": "Food Intake", "setting": "[3]; 24 h, individual animal 2", "result": 2.6, "unit": "g"}, {"measurement": "Food Intake", "setting": "[3]; 24 h, individual animal 3", "result": 3.6, "unit": "g"}, {"measurement": "Food Intake", "setting": "[3]; 24 h, individual animal 4", "result": 3.6, "unit": "g"}, {"measurement": "Food Intake", "setting": "[3]; 24 h, individual animal 5", "result": 2.3, "unit": "g"}, {"measurement": "Food Intake", "setting": "[3]; 48 h, individual animal 1", "result": 6.2, "unit": "g"}, {"measurement": "Food Intake", "setting": "[3]; 48 h, individual animal 2", "result": 4.9, "unit": "g"}, {"measurement": "Food Intake", "setting": "[3]; 48 h, individual animal 3", "result": 7.3, "unit": "g"}, {"measurement": "Food Intake", "setting": "[3]; 48 h, individual animal 4", "result": 7.3, "unit": "g"}, {"measurement": "Food Intake", "setting": "[3]; 48 h, individual animal 5", "result": 4.2, "unit": "g"}, {"measurement": "Food Intake", "setting": "[3]; 72 h, individual animal 1", "result": 9.2, "unit": "g"}, {"measurement": "Food Intake", "setting": "[3]; 72 h, individual animal 2", "result": 7.4, "unit": "g"}, {"measurement": "Food Intake", "setting": "[3]; 72 h, individual animal 3", "result": 10.7, "unit": "g"}, {"measurement": "Food Intake", "setting": "[3]; 72 h, individual animal 4", "result": 10.9, "unit": "g"}, {"measurement": "Food Intake", "setting": "[3]; 72 h, individual animal 5", "result": 6.9, "unit": "g"}]}, {"compound": "CSCC[C@H](NC(=O)[C@H](CC(C)C)NC(=O)CNC(=O)[C@H](Cc1ccccc1)NC(=O)[C@H](Cc1ccccc1)NC(=O)[C@H](CCC(N)=O)NC(=O)[C@H](CCC(N)=O)NC(=O)[C@@H]1CCCN1C(=O)[C@H](CCCCN)NC(=O)[C@@H]1CCCN1C(=O)[C@@H](N)CCCN=C(N)N)C(N)=O", "note": "[Substance P]", "values": [{"measurement": "plasma stability t1/2", "setting": "[1]", "result": 8.5, "unit": "min"}, {"measurement": "half-life at 10 µM", "setting": "[1]; mouse, plasma", "result": 4.5, "unit": "min"}]}, {"compound": "CC(C)C[C@H](NC(=O)CNC(=O)[C@@H]1CCC(=O)N1)C(=O)N[C@@H](CCC(=O)O)C(=O)N[C@@H](C)C(=O)N[C@@H](CC(C)C)C(=O)N[C@@H](CCCNC(=N)N)C(=O)N[C@@H](C)C(=O)N[C@@H](CCCNC(=N)N)C(=O)N[C@@H](CC(C)C)C(=O)N[C@@H](CCCNC(=N)N)C(=O)N[C@H](C(N)=O)C(C)C", "note": "[scrambled CAP-GDF15] ([pGlu]GLEALRARLRV-NH2)", "values": [{"measurement": "3-day body weight compared with control mice, in words", "setting": "[3]; [6]", "result": "indistinguishable"}, {"measurement": "3-day food intake compared with control mice, in words", "setting": "[3]; [6]", "result": "indistinguishable"}, {"measurement": "effect on acute food intake, in words", "setting": "[4]", "result": "completely ineffective"}, {"measurement": "effect on respiratory exchange ratio (RER)", "setting": "[4]", "result": "completely ineffective"}]}, {"compound": "QFFGLM-NH2 [Substance P (6-11)]", "values": [{"measurement": "half-life at 10 µM", "setting": "[1]; mouse, plasma", "result": 8.5, "unit": "min"}]}, {"compound": "QLELRLRVAAGR [uncapped CAP-GDF15]", "values": [{"measurement": "effect on acute food intake, in words", "setting": "[4]", "result": "significantly less efficacious"}]}, {"compound": "liraglutide", "values": [{"measurement": "bioavailability", "setting": "[5]", "result": 55, "unit": "%"}]}]}
